How the values were obtained:
[1] = system: pilocarpine-status epilepticus model of chronic TLE; experiment: Interictal spikes, in vivo local field potential recordings in DG of anesthetized pilocarpine-treated mice; set-up: species or system mouse
Protocol: All experiments were approved by the Institut National de la Santé et de la Recherche Médicale animal care and use committee of May 29, 2001 (2001-464) and the European community council directive of Nov. 24, 1986 (86/609/EEC). Mice (FVB/N background) had access to food and water ad libitum and were housed under a 12 h light/dark cycle at 22-24° C. Male GluK2−/− and WT mice (P60-80) were given scopolamine (1 mg/kg) subcutaneously (s.c.) 15 minutes prior to s.c. administration of pilocarpine (200-600 mg/kg). A ramp protocol was used whereby animals were given an initial dose of 200 mg/kg followed by half-doses every 30 minutes until seizures appeared. Both WT and GluK2−/− mice typically experienced at least two seizures prior to entering status epilepticus (SE). Diazepam (10 mg/kg) was administered 45 minutes after onset of SE.
Naïve wildtype (WT) and pilocarpine-treated WT or GluK2−/− mice (5-6 months old) were anaesthetized with xylazine 13 mg/kg/ketamine 66 mg/kg and placed in a stereotaxic frame (supplemental dosing was administered as required). Body temperature was maintained using a heating pad. The scalp was removed and a small bone window was drilled above the hippocampus (2.1 mm posterior to bregma and 1.4 mm lateral to midline over the right hemisphere). For local field potentials recordings performed in anaesthetized mice, a glass electrode ([…]) filled with Ringer solution (135 mM NaCl, 5.4 mM KCl, 1 mM MgCl2, 1.8 mM CaCl2, 5 mM HEPES) was inserted into the DG (depth, 1650 μm). Recordings were performed using a DAM-80 amplifier (low filter, 1 Hz; high filter, 3 KHz; World Precision Instruments, Sarasota, Fla.). UBP310 or vehicle (saline/10% DMSO) was subsequently injected intraperitoneally (i.p.). During recordings and subsequent analysis, the experimenter was blind to the genotype. For intrahippocampal electroencephalographic (EEG) recordings performed in freely-moving animal a stainless steel electrode (Plastic one, Roanoke, Va.) was inserted into the DG under anesthesia (see above). After a 4 day recovery, EEG (amplified (1000×), filtered at 0.16-97 Hz pass, acquired at 500 Hz) was monitored using a telemetric system (Data Sciences International, St. Paul, Minn.) for 4 days, 24 h per day. Intrahippocampal EEG traces represented the difference in potential between the electrode inserted into the DG and an electrode positioned above the cerebellum; food and water were given ad libitum. UBP310 or vehicle (saline/10% DMSO) was injected intraperitoneally twice a day.
In TLE, interictal spikes (ISs) represent one of the best documented biomarkers of epilepsy in patient and animal models (Staley et al., 2005). […]

[2] = biological target: T1, KARs (Mus musculus, UniProt P39087+Q61626); assay type: cell-based; conditions: WT cultured slices; SYM2081 10 μM, UBP310 5 μM; Sr2+ conditions, 5 μM gabazine, 40 μM D-APV
T1 construct: from tissue; host or cells: dentate granule cells in pilocarpine-treated organotypic hippocampal/entorhinal slice cultures from WT mice (FVB/N)
Protocol: Hippocampal/entorhinal cortex slices (350 μm) were prepared from pre-genotyped GluK2−/− and WT mice (P9-10, FVB/N background) using a McIlwain tissue chopper. Slices were placed on mesh inserts (Millipore # PICMORG50) inside culture dishes containing 1 ml of the following medium: MEM 50%, HS 25%, HBSS 25%, HEPES 15 mM glucose 6.5 mg/ml and insulin 0.1 mg/ml. Culture medium was changed every 2-3 days and slices maintained in an incubator at 37° C./5% CO2. Pilocarpine (0.5 μM) was added to the medium at 5 D.I.V and removed at 7 D.I.V; slices were utilized for experiments from 9 D.I.V.
Cultured or acute slices were individually transferred to a recording chamber maintained at 30-32° C. and continuously perfused (2 ml/min) with oxygenated normal or adapted ACSF containing 5 μM gabazine. Local field potentials were made in the granule cell layer of the DG with glass electrodes (2-3 MΩ; filled with normal ACSF) using a DAM-80 amplifier (low filter, 1 Hz; […], 3 KHz; World Precision Instruments, Sarasota, Fla.). For evoked synaptic transmission, electrical stimulation was performed with a bipolar NiCh electrode (#762000, AM systems). […] Signals were analyzed off-line using Clampfit 9.2 (PClamp) and MiniAnalysis 6.0.1 (Synaptosoft, Decatur, Ga.). In organotypic slices, spontaneous EPSCs were recorded at the reversal potential for GABAergic currents (Vh=−70 mV). To characterize the nature and kinetic properties of fast and slow events, miniature EPSCs (mEPSCs) evoked in Sr2+ conditions (external Ca2+ was substituted with 1.2 mM Sr2+) were recorded in DGCs from GluK2−/− and WT slices. Electrical stimulation was made in the molecular layer in the continued presence of 5 μM gabazine and 40 μM D-APV; asynchronous mEPSCs were measured during the 300 ms period after the stimulus artifact. […] Filtered traces were also analyzed by Fourier analysis (Hamming) using Clampfit 9.2. In acute hippocampal slices, intensity of antidromically-evoked bursts was quantified using coastline index (Epsztein et al., 2005).

T1 sequence (P39087 32-908): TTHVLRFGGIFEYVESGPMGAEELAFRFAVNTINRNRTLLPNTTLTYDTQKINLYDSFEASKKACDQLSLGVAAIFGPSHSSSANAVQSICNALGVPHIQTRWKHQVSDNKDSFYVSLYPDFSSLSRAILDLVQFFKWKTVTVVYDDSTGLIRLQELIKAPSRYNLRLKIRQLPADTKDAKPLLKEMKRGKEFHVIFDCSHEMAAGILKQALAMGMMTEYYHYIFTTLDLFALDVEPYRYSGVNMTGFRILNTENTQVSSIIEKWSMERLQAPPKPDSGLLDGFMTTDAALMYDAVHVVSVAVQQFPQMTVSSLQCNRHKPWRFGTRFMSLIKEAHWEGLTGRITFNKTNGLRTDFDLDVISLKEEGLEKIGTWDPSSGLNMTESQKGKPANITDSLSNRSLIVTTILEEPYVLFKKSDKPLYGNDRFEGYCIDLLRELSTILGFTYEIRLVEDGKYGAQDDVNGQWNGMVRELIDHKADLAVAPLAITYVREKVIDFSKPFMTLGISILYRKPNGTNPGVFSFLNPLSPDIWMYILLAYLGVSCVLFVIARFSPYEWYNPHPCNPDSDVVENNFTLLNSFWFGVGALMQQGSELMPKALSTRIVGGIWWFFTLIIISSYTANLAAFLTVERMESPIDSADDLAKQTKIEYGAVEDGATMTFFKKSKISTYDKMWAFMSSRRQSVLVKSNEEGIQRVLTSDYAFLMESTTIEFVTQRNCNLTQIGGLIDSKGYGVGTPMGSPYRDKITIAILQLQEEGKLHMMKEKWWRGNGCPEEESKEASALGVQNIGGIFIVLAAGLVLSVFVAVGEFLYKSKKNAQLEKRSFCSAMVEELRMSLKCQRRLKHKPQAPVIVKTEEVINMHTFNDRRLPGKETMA
T1 sequence (Q61626 15-979): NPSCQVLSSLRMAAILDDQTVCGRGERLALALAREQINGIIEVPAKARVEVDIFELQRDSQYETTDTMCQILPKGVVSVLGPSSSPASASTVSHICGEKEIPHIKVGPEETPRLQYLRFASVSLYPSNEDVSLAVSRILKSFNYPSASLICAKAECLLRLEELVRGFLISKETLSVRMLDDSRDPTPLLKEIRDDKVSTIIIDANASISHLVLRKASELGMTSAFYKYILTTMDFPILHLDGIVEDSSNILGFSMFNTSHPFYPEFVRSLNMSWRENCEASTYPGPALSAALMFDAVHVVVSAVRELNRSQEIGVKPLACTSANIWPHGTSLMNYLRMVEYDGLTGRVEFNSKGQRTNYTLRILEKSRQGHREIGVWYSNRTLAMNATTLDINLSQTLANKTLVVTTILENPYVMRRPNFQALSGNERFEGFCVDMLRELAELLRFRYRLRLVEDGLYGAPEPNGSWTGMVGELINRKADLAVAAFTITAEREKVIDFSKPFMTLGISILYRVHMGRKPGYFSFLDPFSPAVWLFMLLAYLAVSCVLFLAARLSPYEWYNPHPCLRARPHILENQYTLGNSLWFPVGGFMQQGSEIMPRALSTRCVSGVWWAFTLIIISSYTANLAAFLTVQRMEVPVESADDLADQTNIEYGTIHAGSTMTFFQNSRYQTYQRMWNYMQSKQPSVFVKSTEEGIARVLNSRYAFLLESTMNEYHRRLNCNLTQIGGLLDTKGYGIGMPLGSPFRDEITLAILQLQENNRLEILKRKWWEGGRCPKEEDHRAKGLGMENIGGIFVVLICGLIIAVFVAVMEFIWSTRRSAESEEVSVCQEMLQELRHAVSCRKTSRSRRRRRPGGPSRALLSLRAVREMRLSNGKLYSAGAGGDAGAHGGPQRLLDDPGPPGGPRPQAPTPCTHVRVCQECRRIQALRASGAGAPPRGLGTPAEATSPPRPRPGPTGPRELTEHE

For `Cc1cn(C[C@H](N)C(=O)O)c(=O)n(Cc2ccsc2C(=O)O)c1=O` [UBP310], the “reduction of number of interictal spikes (ISs)” value ([1]; 60 mg/kg intraperitoneal, WT epileptic mice, anesthetized) was 64%, the “change in IS amplitude” value ([1]; 60 mg/kg intraperitoneal, WT epileptic mice, data not shown) was “no change in amplitude” and the “effect on number of ISs in GluK2-/- mice” value ([1]; 60 mg/kg, GluK2-/- mice, P=0.497) was “no effect”. The “effect on IS number at dose reduced by 10 times” value ([1]; injected dose reduced by 10 times from 60 mg/kg, P=0.548) was “no significant effect” and the “effect on KAR-mediated mEPSCs” value [2] was “abolished”.
